Source: patent US20240018118A1, “TRICYCLIC COMPOUNDS TO DEGRADE NEOSUBSTRATES FOR MEDICAL THERAPY” (C 4 Therapeutics, Inc., priority 2020, published 2024)
Like-named read-outs stand apart in the source and are kept apart here.

Legend:
IKZF2 = IKZF2 (Homo sapiens, UniProt Q96SW2+Q9UKS7); conditions: cited from earlier work
IKZF4 = IKZF4 (Homo sapiens, UniProt Q96SW2+Q9H2S9); conditions: cited from earlier work
GSPT1 = GSPT1 (Homo sapiens, UniProt P15170+Q96SW2); test: HiBiT degradation assay, 293T.114 cells, GSPT1; format: cell-based; conditions: 293T.114 cells
Method: GSPT1 degradation was determined based on quantification of luminescent signal using Nano-Glo® HiBiT Lytic Assay kit. Test compounds were added to the 384-well plate from a top concentration of 10 μM with 5 points, 3-fold titration in quadruplicates. 293T.114 cells were added into 384-well plates at a cell density of 6000 cells per well. […] The cells treated in the absence of the test compound were the negative control and the cells without Nano-Glo® HiBiT Lytic reagent were the positive control. […] Luminescence was acquired on EnVision™ Multilabel Reader (PerkinElmer, Santa Clara, CA, USA).

SALL4 = SALL4 (Homo sapiens, UniProt Q96SW2+Q9UJQ4); test: HiBiT degradation assay, KELLY.2 (SALL4-HiBiT) cells; format: cell-based; conditions: for DC50: KELLY.2 cells, 6 hours; for Emax: read-out: HiBiT-Degradation KELLY.2 SALL4 6 hours Emax, KELLY.2 cells
Method: RPMI 1640 Medium without phenol red, fetal bovine serum (FBS), and Sodium Pyruvate (100 mM) were purchased from Gibco (Grand Island, NY, USA). Nano-Glo® HiBiT Lytic Assay System was purchased from Promega (Madison, WI, USA). […] Cell culture flasks and 384-well microplates were acquired from VWR (Radnor, PA, USA).
SALL4 degradation was determined based on quantification of luminescent signal using Nano-Glo® HiBiT Lytic Assay kit. Test compounds were added to the 384-well plate from a top concentration of 10 μM with 11 points, half log titration in duplicates. KELLY.2 cells were added into 384-well plates at a cell density of 6000 cells per well. The plates were kept at 37° C. with 5% CO2 for 6 hours. The cells treated in the absence of the test compound were the negative control and the cells without Nano-Glo® HiBiT Lytic reagent were the positive control. After 6-hour incubation, Nano-Glo® HiBiT Lytic Assay reagents were added to the cells. Luminescence was acquired on EnVision™ Multilabel Reader (PerkinElmer, Santa Clara, CA, USA).

IKZF1 = molecular target: T1, IKZF1 (Homo sapiens, UniProt Q13422+Q96SW2); test: HiBiT degradation assay, NCIH929.11 (HiBiT-IKZF1) cells; format: cell-based; conditions: for DC50: NCHI929.11 cells, 6 hours; for Emax: read-out: HiBiT-Degradation NCHI929.11 IKZF1 6 hours Emax, NCHI929.11 cells
T1 construct: endogenously expressing IKZF1 with HiBiT fusion tag via CRISPR; endogenous in cells; host or cells: NCIH929.11 (CRISPR knock-in)
Method: RPMI no-phenol red medium and fetal bovine serum (FBS) were purchased from Gibco (Grand Island, NY, USA). Nano-Glo® HiBiT Lytic Assay System was purchased from Promega (Madison, WI, USA). NCIH929.11 (HiBiT-IKZF1) cell line was generated in house, endogenously expressing IKZF1 with HiBiT fusion tag via CRISPR. Cell culture flasks and 384-well microplates were acquired from VWR (Radnor, PA, USA).
IKZF 1 degradation was determined based on quantification of luminescent signal using Nano-Glo® HiBiT Lytic Assay kit. Test compounds were added to the 384-well plate from a top concentration of 10 μM with 11 points, half-log titration in duplicates. NCIH929.11 cells expressing HiBiT-tagged TKZF1 were added into 384-well plates in RPMI medium containing 10% FBS and 0.05 mM 2-mercaptoethanol at a cell density of 15000 cells per well. The plates were kept at 37° C. with […] for 6 hours. Cells treated in the absence of the test compound were the negative control and wells containing media only were the positive control. After 6-hour incubation, Nano-Glo® HiBiT Lytic Assay reagents were added to the designated wells. Luminescence was acquired on EnVision™ Multilabel Reader (PerkinElmer, Santa Clara, CA, USA).

CRBN = molecular target: T2, CRBN (Homo sapiens, UniProt Q96SW2); test: NanoBRET CRBN binding, 293T.116 cells; conditions: 2 hours
T2 construct: expressed in transfected cells; host or cells: 293T (line named 293T.116)

[1] = molecular target: T3, CRBN-NanoLuc® fusion protein in 293T cells (Homo sapiens, UniProt Q96SW2); test: NanoBRET assay: competitive displacement of pomalidomide-NanoBRET tracer from CRBN-NanoLuc in 293T.116 cells; format: binding; conditions: 2 h at 37° C., tracer at 300 nM
T3 construct: expressed in transfected cells; host or cells: 293T (line named 293T.116)
Method: The cell permeability and binding affinity of test compounds to cellular cereblon (CRBN) was determined by competitive displacement of a pomalidomide-NanoBRET™ tracer reversibly bound to a CRBN-NanoLuc® fusion protein in 293T cells. 293T cells were modified by lentiviral transfection to express a fusion of CRBN and NanoLuc® luciferase. […] Affinity of test compound was determined by displacement of NanoBRET-pomalidomide tracer signal following the addition of NanoBRET reagents (Promega) per manufacturer's instructions.
40 μL 293T.116 cells suspended in OptiMEM media at 2×10^5 cells/mL (8000 cells/well) were dispensed using a Multidrop Combi Reagent Dispenser (Thermo Fisher) to each well of 384-well white TC-treated microplates. 10 mM DMSO test compound stock solution was serially diluted (half log) in DMSO to generate 11-point dose series (10000, 3160, 1000, 316, 100, 31.6, 10, 3.2, 1, 0.3, 0.1 μM) in an acoustic ready 384-well low dead volume microplate (Labcyte). […] 20 μL NanoBRET TE Assay reagents were added to each well and NanoBRET signal was acquired on an EnVision Multilabel Reader (PerkinElmer). Donor emission from CRBN-NanoLuc was detected at 450 nm with a NanoLuc 460/50 filter and Acceptor fluorescence of NanoBRET-pomalidomide tracer (618 nm) was detected with a 600 nm long pass NanoBRET filter. Ratio of Acceptor signal/Donor signal was calculated for each well. […]

[2] = 24 hours, read-out: HiBiT-Degradation 293T.114 GSPT1 24 hours DC50
[3] = 24 hours, read-out: HiBiT-Degradation 293T.114 GSPT1 24 hours Emax
[4] = 48 hours, read-out: HiBiT-Degradation 293T.114 GSPT1 48 hours DC50
[5] = 48 hours, read-out: HiBiT-Degradation 293T.114 GSPT1 48 hours Emax
[6] = 6 hours, read-out: HiBiT-Degradation 293T.114 GSPT1 6 hours DC50
[7] = read-out: HiBiT-Degradation 293T.114 GSPT1 6 hours Emax, 6 hours

| Compound | DC50 (GSPT1; [2]) | Emax (GSPT1; [3]) | DC50 (GSPT1; [4]) | Emax (GSPT1; [5]) | DC50 (SALL4) | Emax (SALL4) | DC50 (IKZF1) | Emax (IKZF1) | IC50 (CRBN) | DC50 (GSPT1; [6]) | Emax (GSPT1; [7]) | IC50 [1] | degradation of IKZF2 (IKZF2) | degradation of IKZF4 (IKZF4) |
| --- | --- | --- | --- | --- | --- | --- | --- | --- | --- | --- | --- | --- | --- | --- |
| Cc1nc2cccc(N)c2c(=O)n1C1CCC(=O)NC1=O (stereo not shown) [CC-122] |  |  |  |  |  |  |  |  |  |  |  |  | not degraded | not degraded |
| O=C1CC[C@H](N2Cc3c(OCc4ccc(CN5CCOCC5)cc4)cccc3C2=O)C(=O)N1 [CC-220] |  |  |  |  |  |  |  |  |  |  |  |  | efficiently degraded | efficiently degraded |
| N#Cc1ccc(Cc2ccc3c4c(cccc24)N(C2CCC(=O)NC2=O)C3=O)cc1 (stereo not shown) [Compound 66, 4-[[1-(2,6-dioxo-3-piperidyl)-2-oxo-benzo[cd]indol-5-yl]methyl]benzonitrile] | > 10000 nM | 60 to 95% | > 10000 nM | 60 to 95% | 100 to 1000 nM | 45 to 60% | > 10000 nM | 60 to 95% | < 100 nM |  |  |  |  |  |
| N#Cc1ccc(N2CCN(Cc3ccc(Cc4ccc5c6c(cccc46)C(=O)N5[C@H]4CCC(=O)NC4=O)cc3)CC2)c(F)c1 [Compound 78, (S)-4-(4-(4-((1-(2,6-dioxopiperidin-3-yl)-2-oxo-1,2-dihydrobenzo[cd]indol-6-yl)methyl)benzyl)piperazin-1-yl)-3-fluorobenzonitrile] |  |  |  |  | < 100 nM | < 45% | < 100 nM | < 45% | < 100 nM | > 10000 nM | 60 to 95% |  |  |  |
| O=C1CCC(N2C(=O)c3ccc(CNCCc4ccc(Cl)cc4)c4cccc2c34)C(=O)N1 (stereo not shown) [Compound 157] | > 10000 nM | 60 to 95% | > 10000 nM | 60 to 95% | < 100 nM | < 45% | 100 to 1000 nM | < 45% | < 100 nM |  |  |  |  |  |
| O=C1CCC(N2C(=O)c3ccc(CN4CC(Oc5ccccc5)C4)c4cccc2c34)C(=O)N1 (stereo not shown) [Compound 158] | < 100 nM | < 45% |  |  | < 100 nM | < 45% | < 100 nM | < 45% | < 100 nM | < 100 nM | < 45% |  |  |  |
| CC(C)OC1CCN(Cc2cc3c4c(cccc4c2)N(C2CCC(=O)NC2=O)C3=O)CC1 (stereo not shown) [Compound 161] | > 10000 nM | 60 to 95% | > 10000 nM | 60 to 95% | > 10000 nM | 60 to 95% | 1000 to 10000 nM | < 45% | < 100 nM |  |  |  |  |  |
| CC1(C(=O)N2CCC(n3cc(Cc4ccc5c6c(cccc46)C(=O)N5[C@H]4CCC(=O)NC4=O)cn3)CC2)CCC1 [Compound 206, (3S)-3-[6-[[1-[1-(1-methylcyclobutanecarbonyl)-4-piperidyl]pyrazol-4-yl]methyl]-2-oxo-benzo[cd]indol-1-yl]piperidine-2,6-dione] |  |  |  |  | < 100 nM | < 45% | < 100 nM | < 45% | < 100 nM | > 10000 nM | > 95% |  |  |  |
| Nc1cccc2c1C(=O)N(C1CCC(=O)NC1=O)C2=O (stereo not shown) [pomalidomide] |  |  |  |  |  |  |  |  |  |  |  |  | not degraded | not degraded |

Now from value to molecule, other results behind:

| DC50 (GSPT1; [2]) | Emax (GSPT1; [3]) | DC50 (GSPT1; [4]) | Emax (GSPT1; [5]) | DC50 (SALL4) | Emax (SALL4) | DC50 (IKZF1) | Emax (IKZF1) | IC50 (CRBN) | DC50 (GSPT1; [6]) | Emax (GSPT1; [7]) | IC50 [1] | Compound | degradation of IKZF2 (IKZF2) | degradation of IKZF4 (IKZF4) |
| --- | --- | --- | --- | --- | --- | --- | --- | --- | --- | --- | --- | --- | --- | --- |
|  |  |  |  | > 10000 nM | 60 to 95% | > 10000 nM | 60 to 95% | < 100 nM | > 10000 nM | 60 to 95% |  | CCOc1ccc(Cc2ccc3c4c(cccc24)N(C2CCC(=O)NC2=O)C3=O)cc1 (stereo not shown) [Compound 68, 3-[5-[(4-ethoxyphenyl)methyl]-2-oxo-benzo[cd]indol-1-yl]piperidine-2,6-dione] |  |  |
|  |  |  |  | > 10000 nM | 60 to 95% | > 10000 nM | 60 to 95% | < 100 nM | > 10000 nM | 60 to 95% |  | CCOC(=O)c1cc(Cc2ccc3c4c(cccc24)N(C2CCC(=O)NC2=O)C3=O)ccc1F (stereo not shown) [Compound 69, ethyl 5-[[1-(2,6-dioxo-3-piperidyl)-2-oxo-benzo[cd]indol-5-yl]methyl]-2-fluoro-benzoate] |  |  |
| > 10000 nM | 60 to 95% | > 10000 nM | 60 to 95% | < 100 nM | < 45% | > 10000 nM | 45 to 60% | < 100 nM |  |  |  | O=C1CCC(N2C(=O)c3ccc(CNCc4cc(F)ccc4F)c4cccc2c34)C(=O)N1 (stereo not shown) [Compound 155, 3-[5-[[(2,5-difluorophenyl)methylamino]methyl]-2-oxo-benzo[cd]indol-1-yl]piperidine-2,6-dione] |  |  |
|  |  |  |  | < 100 nM | < 45% | > 10000 nM | 60 to 95% | < 100 nM | > 10000 nM | 60 to 95% | 40 nM | O=C1CCC(N2C(=O)c3ccc(Br)c4cccc2c34)C(=O)N1 (stereo not shown) [Compound 224] |  |  |
|  |  |  |  |  |  |  |  |  |  |  | 60 nM | N#Cc1ccc2c3c(cccc13)N(C1CCC(=O)NC1=O)C2=O (stereo not shown) [Compound 225] |  |  |
